From ChEMBL document CHEMBL4257221, “Peptides comprising non-natural amino acids and methods of making and using the same” (2016)
pEC50: −log10 of the molar value. The source made the active and inactive calls. The calls are words filed in the database; no cut-off is given here. Numbered stars: 1 amine (or outer) side, 2 acyl side, 3 side chain; on linkers, the order of the positions; unused ones are H or OH. Square brackets hold non-standard residues; d marks the D form. Peptide text beside a SMILES is read from it. ξ: configuration not given here. X1 = O=C([C@H]1CCC[C@@H]1N[*:1])[*:2]; X2 = O=C([C@H]1CNC[C@@H]1N[*:1])[*:2]; ξβ3hL = CC(C)CC(N)CC(=O)O; ξβ3hK = NCCCCC(N)CC(=O)O; ξβ3hT = CC(O)C(N)CC(=O)O; ξβ3hV = CC(C)C(N)CC(=O)O; βAla = NCCC(=O)O

What was measured:
[1] = tested on: Mus musculus; assay: (§1) Anti-parkinson's activity in MPTP-induced C57BL/6 mouse model of Parkinson's disease receiving adaptive transfer of splenocytes from 15 ug/day/5 days, ip compound treated donor mouse assessed as TH-positive neurons survival rate in substantia nigra measured on day 7 post MPTP intoxication by FJ-C staining based assay (reference value: 24.5%); format: functional
[2] = tested on: Mus musculus; assay: Stimulation of Treg cells function in C57BL/6 mouse splenocytes assessed as suppression of anti-CD3-stimulated effector T cell proliferation pretreated ip daily for 5 days followed by splenocytes isolation and co-culture with untreated splenocytes at 1:1 ratio; format: functional, organism-based
[3] = tested on: Mus musculus; assay: as §1, with “nigra at 15 ug/day, ip for 5 days” for “nigra”, “relative to control” for “(reference value: 24.5%)”; format: functional
[4] = tested on: Mus musculus; assay: Stimulation of Treg cells function in C57BL/6 mouse splenocytes assessed as suppression of anti-CD3-stimulated CD4+/CD25- naive T cells proliferation at 300 ug, ip pretreated daily for 5 days followed by splenocytes isolation and co-culture with CD4+/CD25- naive T cells; format: functional, organism-based
[5] = target: Dipeptidyl peptidase 4 (Homo sapiens, UniProt P27487); assay: Stability of the compound assessed as DPP4 (unknown origin)-mediated compound hydrolysis at 250 uM by HPLC analysis; format: ADME
Chain of Dipeptidyl peptidase 4 (P27487 whole entry): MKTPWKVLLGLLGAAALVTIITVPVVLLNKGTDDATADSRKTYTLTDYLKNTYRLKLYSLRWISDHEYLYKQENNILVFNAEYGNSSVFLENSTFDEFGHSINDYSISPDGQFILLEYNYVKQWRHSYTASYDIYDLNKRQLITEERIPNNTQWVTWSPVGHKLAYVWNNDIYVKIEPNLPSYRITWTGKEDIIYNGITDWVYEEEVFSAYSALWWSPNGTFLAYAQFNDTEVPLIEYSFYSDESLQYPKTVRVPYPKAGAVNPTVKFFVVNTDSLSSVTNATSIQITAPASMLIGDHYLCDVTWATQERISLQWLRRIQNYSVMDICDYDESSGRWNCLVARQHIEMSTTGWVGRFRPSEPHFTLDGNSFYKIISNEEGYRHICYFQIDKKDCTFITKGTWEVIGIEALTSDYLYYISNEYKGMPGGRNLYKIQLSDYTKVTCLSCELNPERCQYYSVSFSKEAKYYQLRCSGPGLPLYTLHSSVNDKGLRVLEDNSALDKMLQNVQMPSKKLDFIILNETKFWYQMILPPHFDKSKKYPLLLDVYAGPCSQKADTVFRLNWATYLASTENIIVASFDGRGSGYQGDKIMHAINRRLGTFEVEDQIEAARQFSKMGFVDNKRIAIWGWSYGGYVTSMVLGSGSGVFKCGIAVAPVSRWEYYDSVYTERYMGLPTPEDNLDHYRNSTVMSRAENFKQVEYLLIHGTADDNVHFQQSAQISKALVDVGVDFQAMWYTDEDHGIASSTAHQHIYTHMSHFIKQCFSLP

[6] = target: Chymotrypsin (Homo sapiens, UniProt Q99895+P17538+P40313+Q6GPI1); assay: Stability of the compound assessed as chymotrypsin (unknown origin)-mediated compound hydrolysis at 250 uM by HPLC analysis; format: ADME
[7] = target: Proteinase K (Engyodontium album, UniProt P06873); assay: Stability of the compound assessed as Tritirachium album proteinase K-mediated compound hydrolysis at 250 uM by HPLC analysis; format: ADME; details: parengyodontium album
Chain of Proteinase K (P06873 whole entry): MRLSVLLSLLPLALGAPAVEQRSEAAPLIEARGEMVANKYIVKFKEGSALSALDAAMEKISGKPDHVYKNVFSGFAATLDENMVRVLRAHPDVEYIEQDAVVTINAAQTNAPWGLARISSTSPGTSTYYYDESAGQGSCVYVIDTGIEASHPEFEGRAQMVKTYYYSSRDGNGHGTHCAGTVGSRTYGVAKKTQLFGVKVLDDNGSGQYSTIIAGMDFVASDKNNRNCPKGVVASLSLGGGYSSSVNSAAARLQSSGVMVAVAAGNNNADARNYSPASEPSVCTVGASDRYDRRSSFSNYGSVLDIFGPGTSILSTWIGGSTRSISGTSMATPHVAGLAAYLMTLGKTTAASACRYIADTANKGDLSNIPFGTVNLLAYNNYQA

[8] = target: T1, Vasoactive intestinal polypeptide receptor 1 (Homo sapiens, UniProt P32241); assay: Agonist activity at human VIPR1 expressed in CHOK1 cells assessed as intracellular cAMP accumulation after 60 mins by PathHunter assay; format: functional, cell-based
T1 sequence (P32241 whole entry): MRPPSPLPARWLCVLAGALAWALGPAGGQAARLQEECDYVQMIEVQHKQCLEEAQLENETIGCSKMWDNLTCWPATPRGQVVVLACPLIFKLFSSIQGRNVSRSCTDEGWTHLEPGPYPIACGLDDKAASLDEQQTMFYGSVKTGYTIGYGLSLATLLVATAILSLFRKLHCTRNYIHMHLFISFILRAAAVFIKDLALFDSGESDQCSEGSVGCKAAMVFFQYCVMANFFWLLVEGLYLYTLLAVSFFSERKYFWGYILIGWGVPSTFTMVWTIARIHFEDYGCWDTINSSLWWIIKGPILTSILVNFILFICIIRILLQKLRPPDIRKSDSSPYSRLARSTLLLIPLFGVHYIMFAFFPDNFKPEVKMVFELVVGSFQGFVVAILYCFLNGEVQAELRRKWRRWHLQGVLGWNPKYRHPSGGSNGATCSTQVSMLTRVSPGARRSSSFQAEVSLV

[9] = target: T2, Vasoactive intestinal polypeptide receptor 2 (Homo sapiens, UniProt P41587); assay: Agonist activity at human VIPR2 expressed in CHOK1 cells assessed as intracellular cAMP accumulation after 60 mins by PathHunter assay; format: functional, cell-based
T2 sequence (P41587 whole entry): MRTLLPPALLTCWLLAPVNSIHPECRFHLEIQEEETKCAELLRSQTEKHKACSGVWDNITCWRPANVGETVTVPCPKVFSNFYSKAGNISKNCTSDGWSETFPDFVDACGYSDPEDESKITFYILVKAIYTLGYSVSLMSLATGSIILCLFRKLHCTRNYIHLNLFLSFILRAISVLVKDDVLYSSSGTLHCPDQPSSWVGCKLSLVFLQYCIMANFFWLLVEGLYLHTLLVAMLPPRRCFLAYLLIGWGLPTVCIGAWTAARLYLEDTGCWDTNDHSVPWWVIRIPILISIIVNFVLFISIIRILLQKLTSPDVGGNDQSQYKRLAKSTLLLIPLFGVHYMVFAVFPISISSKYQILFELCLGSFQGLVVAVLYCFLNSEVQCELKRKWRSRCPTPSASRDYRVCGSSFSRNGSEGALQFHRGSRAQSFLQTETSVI

[10] = target: T1, Vasoactive intestinal polypeptide receptor 1; assay: Induction of VIPR1 receptor internalization in CHOK1 cells expressing human VIPR1 by beta-galactosidase reporter gene assay; format: functional, cell-based

| Stability [5] | Stability [6] | Stability [7] | pEC50 [8] | pEC50 [9] | pEC50 [10] | SMILES | Survival [1] | Activity [2] | Survival [3] | Activity [4] |
| --- | --- | --- | --- | --- | --- | --- | --- | --- | --- | --- |
| – | – | – | – | – | – | CC[C@H](C)[C@H](NC(=O)C1CCCN1C(=O)[C@H](CCC(N)=O)NC(=O)[C@H](CC(C)C)NC(=O)[C@H](Cc1ccc(O)cc1)NC(=O)[C@H](CCCCN)NC(=O)[C@H](CCCCN)NC(=O)[C@H](C)NC(=O)C1CCCN1C(=O)[C@@H](NC(=O)[C@H](CCC(N)=O)NC(=O)C1CCCN1C(=O)[C@H](CCCNC(=N)N)NC(=O)[C@H](CC(C)C)NC(=O)[C@H](CCCNC(=N)N)NC(=O)[C@@H](NC(=O)[C@H](Cc1ccc(O)cc1)NC(=O)[C@H](CC(N)=O)NC(=O)[C@H](CC(=O)O)NC(=O)[C@@H](NC(=O)[C@H](Cc1ccccc1)NC(=O)[C@@H](NC(=O)[C@H](C)NC(=O)[C@H](CC(=O)O)NC(=O)[C@H](CO)NC(=O)[C@@H](N)Cc1cnc[nH]1)C(C)C)[C@@H](C)O)[C@@H](C)O)C(C)C)C(=O)N[C@@H](CCCCN)C(=O)N[C@@H](CC(N)=O)C(=O)N[C@@H](CCCCN)C(=O)N[C@@H](CCCNC(=N)N)C(=O)N[C@@H](Cc1ccc(O)cc1)C(=O)O (some centres undefined) | 50.2% | Dose-dependent effect | 69.1% | Active |
| Stable | Stable | Stable | – | – | – | CCCC[C@H](NC(=O)[C@H](CCC(N)=O)NC(=O)[C@H](CCCCN)NC(=O)[C@H](CCCNC(=N)N)NC(=O)[C@H](CC(C)C)NC(=O)[C@H](CCCCN)NC(=O)[C@@H](NC(=O)[C@H](Cc1ccc(O)cc1)NC(=O)[C@H](CC(N)=O)NC(=O)[C@H](CCC(=O)OC(=O)[C@H](C)NC(=O)[C@H](CC(=O)O)NC(=O)[C@H](CO)NC(=O)[C@H](Cc1c[nH]cn1)NC(C)=O)NC(=O)[C@@H](NC(=O)[C@H](Cc1ccccc1)NC(=O)[C@@H](N)C(C)C)[C@@H](C)O)[C@@H](C)O)C(=O)N[C@@H](C)C(=O)N[C@@H](C)C(=O)N[C@@H](CCCCN)C(=O)N[C@@H](CCCCN)C(=O)N[C@@H](Cc1ccc(O)cc1)C(=O)N[C@@H](CC(C)C)C(=O)N[C@@H](CC(N)=O)C(=O)NC(=O)[C@@H](NC(=O)CNC(=O)CNC(=O)[C@@H]1CCCCN[C@@H](CC(N)=O)C(=O)N[C@@H](CC(C)C)C(=O)N[C@@H](CCCCN)C(=O)N1)[C@@H](C)O | – | – | – | – |
| Stable | Stable | Stable | 6.88 | 9.19 | – | CC(=O)N[C@@H](Cc1cnc[nH]1)C(=O)N[C@H]1CCC[C@@H]1C(=O)N[C@@H](CC(=O)O)C(=O)N[C@@H](C)C(=O)N[C@H]1CCC[C@@H]1C(=O)N[C@@H](Cc1ccccc1)C(=O)N[C@H](C(=O)N[C@@H](CCC(=O)O)C(=O)N[C@@H](CC(N)=O)C(=O)N[C@@H](Cc1ccc(O)cc1)C(=O)N[C@H](C(=O)N[C@@H](CCCCN)C(=O)N[C@@H](CC(C)C)C(=O)N[C@@H](CCCNC(=N)N)C(=O)N[C@@H](CCCCN)C(=O)N[C@@H](CCC(N)=O)C(=O)N[C@@H](CC(C)C)C(=O)N[C@@H](C)C(=O)N[C@@H](C)C(=O)N[C@H]1CNC[C@@H]1C(=O)N[C@@H](CCCCN)C(=O)N[C@@H](Cc1ccc(O)cc1)C(=O)N[C@H]1CCC[C@@H]1C(=O)N[C@@H](CC(N)=O)C(=O)N[C@@H](CC(=O)O)C(=O)N[C@@H](CC(C)C)C(=O)NC(CCCCN)CC(=O)N[C@@H](CCCCN)C(=O)NCC(=O)NCCC(=O)N[C@H](C(=O)O)[C@@H](C)O)[C@@H](C)O)[C@@H](C)O (stereo partly drawn) (Ac-H[X1]DA[X1]FTENYTKLRKQLAA[X2]KY[X1]NDL[ξβ3hK]KG[βAla]T-OH) | – | – | – | – |
| – | – | – | 8.66 | – | 7.99 | CC[C@H](C)[C@H](NC(=O)[C@H](C)NC(=O)[C@H](CC(N)=O)NC(=O)CC(CC(C)C)NC(=O)[C@H](Cc1ccc(O)cc1)NC(=O)[C@H](CCCCN)NC(=O)[C@H](CCCCN)NC(=O)CC(NC(=O)[C@H](C)NC(=O)[C@H](CC(C)C)NC(=O)[C@H](CCC(N)=O)NC(=O)CC(CCCCN)NC(=O)[C@H](CCCNC(=N)N)NC(=O)[C@H](CC(C)C)NC(=O)[C@H](CCCNC(=N)N)NC(=O)CC(NC(=O)[C@H](Cc1ccc(O)cc1)NC(=O)[C@H](CC(N)=O)NC(=O)[C@H](CC(=O)O)NC(=O)[C@@H](NC(=O)[C@H](Cc1ccccc1)NC(=O)[C@@H](NC(=O)[C@H](C)NC(=O)[C@H](CC(=O)O)NC(=O)[C@H](CO)NC(=O)[C@@H](N)Cc1cnc[nH]1)C(C)C)[C@@H](C)O)C(C)O)C(C)C)C(=O)NC(CC(=O)N[C@@H](CC(N)=O)C(=O)O)CC(C)C (stereo partly drawn) (H-HSDAVFTDNY[ξβ3hT]RLR[ξβ3hK]QLA[ξβ3hV]KKY[ξβ3hL]NAI[ξβ3hL]N-OH) | – | – | – | – |
